Data: patent publication US11229636B2, “Substituted tetrahydroquinolinone compounds as ROR gamma modulators” (Aurigene Discovery Technologies Limited, priority 2015, dated 2022)

How the values were obtained:
RORγ LBD = RORγ LBD (Homo sapiens (Human), UniProt P51449); assay: ROR gamma radio-ligand binding assay (3H 25-Hydroxycholesterol competitive displacement, dextran charcoal method); details: for inhibition at 10 µM / RORγ ligand binding assay: % inhibition @ 10 μM: 10 μM compound; for IC50: in range
How it was run: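 Human RORγ LBD (aa 247–497) was expressed as a GST fusion in E. coli and purified. For binding, 300 ng protein, 5 nM ³H-25-hydroxycholesterol and compound were incubated for 30 min at room temperature in 50 mM HEPES pH 7.5, 150 mM NaCl, 0.01% BSA and 5 mM MgCl2. After dextran-charcoal separation, the supernatant was counted and 10-point curves were fitted by variable-slope sigmoid.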

[1] = molecular target: ROR gamma ligand binding domain (Homo sapiens (Human), UniProt P51449); assay: ROR gamma luciferase reporter assay (GAL4-ROR gamma LBD, HEK293 cells); format: cell-based; details: 48 hours treatment, read-out: RORγ luciferase Reporter assay: IC50 (nM) (in range)
How it was run: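 HEK293 cells were co-transfected with a GAL4 DBD–RORγ LBD fusion (hRluc vector) and a 9xGAL4 UAS luc2P reporter, then treated with compounds for 48 h. Bright-Glo luminescence was used to derive potency.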

[2] = test system: EL-4 murine lymphoma cell line; details: cited from earlier work

ROR gamma ligand binding domain, sequence (P51449 269-508): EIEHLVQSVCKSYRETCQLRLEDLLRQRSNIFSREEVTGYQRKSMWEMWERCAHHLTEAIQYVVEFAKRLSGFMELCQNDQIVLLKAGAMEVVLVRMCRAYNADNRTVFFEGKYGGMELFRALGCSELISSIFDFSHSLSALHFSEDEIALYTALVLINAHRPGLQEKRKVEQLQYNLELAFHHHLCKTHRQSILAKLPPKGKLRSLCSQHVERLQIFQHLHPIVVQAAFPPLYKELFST
RORγ LBD, sequence (P51449 268-518): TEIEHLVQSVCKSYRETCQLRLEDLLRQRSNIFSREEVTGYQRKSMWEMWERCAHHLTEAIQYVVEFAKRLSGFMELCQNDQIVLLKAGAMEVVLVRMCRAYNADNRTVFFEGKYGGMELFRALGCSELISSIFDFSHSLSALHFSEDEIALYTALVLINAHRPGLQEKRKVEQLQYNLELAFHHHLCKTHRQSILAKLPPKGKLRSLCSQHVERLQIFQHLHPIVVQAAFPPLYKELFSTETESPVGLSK

inhibition at 1 µM (RORγ LBD; 1 μM compound) [%]	inhibition at 10 µM (RORγ LBD) [%]	IC50 (RORγ LBD) [nM]	IC50 [1] [nM]	RORγ ligand binding assay: % inhibition @ 10 μM (RORγ LBD) [%]	RORγ ligand binding assay: % inhibition @1 μM (RORγ LBD; 1 μM compound) [%]	Structure (SMILES)	synthesis of IL-17 [2]
84	89	< 150	100 to 500			CCS(=O)(=O)c1ccc(CC(=O)Nc2ccc3c(n2)CCC(C)(c2ccc(OC)nc2)C3=O)cc1 (stereo not drawn) [Compound 2, 2-(4-(ethylsulfonyl)phenyl)-N-(6-(6-methoxypyridin-3-yl)-6-methyl-5-oxo-5,6,7,8-tetrahydroquinolin-2-yl)acetamide]	
86	93	150 to 300	< 100			CCS(=O)(=O)c1ccc(CC(=O)Nc2ccc3c(n2)CCC(C)(c2nc(C)cn4ccnc24)C3=O)cc1 (stereo not drawn) [Compound 16, 2-(4-(ethylsulfonyl)phenyl)-N-(6-methyl-6-(6-methylimidazo[1,2-a]pyrazin-8-yl)-5-oxo-5,6,7,8-tetrahydroquinolin-2-yl)acetamide]	
91			> 500	36		CCS(=O)(=O)c1ccc(CC(=O)Nc2cc(C)c3c(n2)CCC(C)(c2ccc(OC)nn2)C3=O)cc1 (single isomer, unassigned) [compound 109, 2-(4-(ethylsulfonyl)phenyl)-N-(6-(6-methoxypyridazin-3-yl)-4,6-dimethyl-5-oxo-5,6,7,8-tetrahydroquinolin-2-yl)acetamide]	
25	71		> 500			CCS(=O)(=O)c1ccc(CC(=O)Nc2nc3c(cc2C)C(=O)C(C)(c2nccn4ccnc24)CC3)cc1 (stereo not drawn) [Compound 11, 2-(4-(ethylsulfonyl)phenyl)-N-(6-(imidazo[1,2-a]pyrazin-8-yl)-3,6-dimethyl-5-oxo-5,6,7,8-tetrahydroquinolin-2-yl)acetamide]	
47	82		> 500			CCc1ccc(C2(C)CCc3nc(NC(=O)Cc4ccc(S(=O)(=O)CC)cc4)ccc3C2=O)nn1 (stereo not drawn) [Compound 41, N-(6-(6-ethylpyridazin-3-yl)-6-methyl-5-oxo-5,6,7,8-tetrahydroquinolin-2-yl)-2-(4-(ethylsulfonyl)phenyl)acetamide]	

Further lines, the molecule ahead of its results:

Structure (SMILES)	inhibition at 1 µM (RORγ LBD; 1 μM compound) [%]	inhibition at 10 µM (RORγ LBD) [%]	IC50 (RORγ LBD) [nM]	IC50 [1] [nM]	RORγ ligand binding assay: % inhibition @ 10 μM (RORγ LBD) [%]	RORγ ligand binding assay: % inhibition @1 μM (RORγ LBD; 1 μM compound) [%]	synthesis of IL-17 [2]
CCS(=O)(=O)c1ccc(CC(=O)Nc2ccc3c(n2)CCC(C)(c2ccc(C(C)C)nn2)C3=O)cc1 (stereo not drawn) [Compound 62, 2-(4-(ethylsulfonyl)phenyl)-N-(6-(6-isopropylpyridazin-3-yl)-6-methyl-5-oxo-5,6,7,8-tetrahydroquinolin-2-yl)acetamide]	96	91	< 150	> 500			
CCS(=O)(=O)c1ccc(CC(=O)Nc2ccc3c(n2)CCC(C)(c2cc(C)nc(C)n2)C3=O)cc1 (stereo not drawn) [Compound 7, N-(6-(2,6-dimethylpyrimidin-4-yl)-6-methyl-5-oxo-5,6,7,8-tetrahydroquinolin-2-yl)-2-(4-(ethylsulfonyl)phenyl)acetamide]	91	100	< 150	100 to 500			
CCS(=O)(=O)c1ccc(CC(=O)Nc2cc(C)c3c(n2)CCC(C)(c2ccc(C)nn2)C3=O)cc1 (stereo not drawn) [Compound 34, N-(4,6-dimethyl-6-(6-methylpyridazin-3-yl)-5-oxo-5,6,7,8-tetrahydroquinolin-2-yl)-2-(4-(ethylsulfonyl)phenyl)acetamide]	74	97	> 300	> 500			
CCS(=O)(=O)c1ccc(CC(=O)Nc2cc(C)c3c(n2)CCC(C)(c2cc(C)nc(C)n2)C3=O)cc1 (single isomer, unassigned) [compound 107, N-(6-(2,6-dimethylpyrimidin-4-yl)-4,6-dimethyl-5-oxo-5,6,7,8-tetrahydroquinolin-2-yl)-2-(4-(ethylsulfonyl)phenyl)acetamide]	91		< 150	100 to 500	90		
CCS(=O)(=O)c1ccc(CC(=O)Nc2ccc3c(n2)CCC(C)(c2ccc(C)s2)C3=O)cc1 (stereo not drawn) [Compound 45, 2-(4-(ethylsulfonyl)phenyl)-N-(6-methyl-6-(5-methylthiophen-2-yl)-5-oxo-5,6,7,8-tetrahydroquinolin-2-yl)acetamide]	66	73		< 100			
OC(c1ccc(-c2ccc(CN3CCN(Cc4ccncc4)CC3)cc2)c(F)c1)(C(F)(F)F)C(F)(F)F [SR2211]							suppress the synthesis of IL-17
CCS(=O)(=O)c1ccc(CC(=O)Nc2ccc3c(n2)CCC(C)(c2ncc(OC)cn2)C3=O)cc1 (stereo not drawn) [Compound 56, 2-(4-(ethylsulfonyl)phenyl)-N-(6-(5-methoxypyrimidin-2-yl)-6-methyl-5-oxo-5,6,7,8-tetrahydroquinolin-2-yl)acetamide]	96	94	< 150	< 100			
CCS(=O)(=O)c1ccc(CC(=O)Nc2cc(C)c3c(n2)CCC(C)(c2cc(OC)ccn2)C3=O)cc1 (stereo not drawn) [Compound 22, 2-(4-(ethylsulfonyl)phenyl)-N-(6-(4-methoxypyridin-2-yl)-4,6-dimethyl-5-oxo-5,6,7,8-tetrahydroquinolin-2-yl)acetamide]	76	95		100 to 500			
CCS(=O)(=O)c1ccc(CC(=O)Nc2ccc3c(n2)CCC(C)(c2nccn4cc(C)nc24)C3=O)cc1 (single isomer, unassigned) [Compound-105, 2-(4-(ethylsulfonyl)phenyl)-N-(6-methyl-6-(2-methylimidazo[1,2-a]pyrazin-8-yl)-5-oxo-5,6,7,8-tetrahydroquinolin-2-yl)acetamide]			< 150	< 100	97	100	
CCS(=O)(=O)c1ccc(CC(=O)Nc2ccc3c(n2)CCC(C)(c2ccnc(C(C)C)n2)C3=O)cc1 (stereo not drawn) [Compound 50, 2-(4-(ethylsulfonyl)phenyl)-N-(6-(2-isopropylpyrimidin-4-yl)-6-methyl-5-oxo-5,6,7,8-tetrahydroquinolin-2-yl)acetamide]	91	90	< 150	100 to 500			
CCS(=O)(=O)c1ccc(CC(=O)Nc2ccc3c(n2)CCC(C)(c2ccc(OC)nn2)C3=O)cc1 (stereo not drawn) [Compound 12, 2-(4-(ethylsulfonyl)phenyl)-N-(6-(6-methoxypyridazin-3-yl)-6-methyl-5-oxo-5,6,7,8-tetrahydroquinolin-2-yl)acetamide]			< 150	100 to 500			
